From publication PMC12392461, “Beyond Estrogenicity: A Comparative Assessment of Bisphenol A and Its Alternatives in In Vitro Assays Questions Safety of Replacements” (Environmental Science & Technology, 2025)
Like-named read-outs stand apart in the source and are kept apart here.

Assays:
[1] = system: Antioxidant response element; experiment: MitoOxTox: oxidative stress response in AREc32; settings: for EC10, linear / logEC10: Bioassay ARE, dosing range all; for EC10, linear: linear model fit; for logEC10: log-logistic model fit
Text: All bioassay media components and the ERα-UAS-bla GripTite and PPARγ-UAS-bla cells were obtained from Thermo Fisher Scientific (Waltham, MA, USA). AREc32 reporter gene cells based on MCF7 were provided by C. Roland Wolf (Cancer Research UK); AhR CALUX cells (H4L7.5c2 derived from H4IIe) were provided by Michael Denison (UC Davis, USA); and SH-SY5Y cells were purchased from Sigma-Aldrich.
(§1) Cell culture conditions and bioassay protocols including response detection are provided in Text S2.1–2.4 and Table S3. − Cell viability was determined from cell confluency using an IncuCyte S3 Live-Cell Analysis System (Sartorius AG, Essen, Germany) before and after exposure, except for SH-SY5Y cells (live–dead staining with Nuclear Green LcS1 and propidium iodide, Abcam, UK). For metabolic activation experiments, cell viability was assessed using the ToxBLAzer DualScreen Kit (Thermo Fisher Scientific) to capture the remaining toxicity in ERα-UAS-bla GripTite after treatment with the aCYP catalyst (details in Text S2.4).
For ARE, the concentration that triggered an induction ratio of 1.5 (ECIR1.5) was used as the benchmark value, as detailed in Text S2.5. IC10 values also served as a threshold for data analysis in all assays; only concentrations below IC10 were considered when deriving EC10 or ECIR1.5. […]
S2: Cell culture and bioassays
S2.1: Cell Culturing Conditions
All suppliers and sources are given in detail in SI-Excel S3. The bioassay media for the different assays were prepared as follows: Assay medium for ER alpha-UAS-bla GripTite (ERα) and PPAR gamma-UAS-bla 293H (PPARγ) was prepared with 98% Opti-MEM, supplemented with 2% charcoal-stripped FBS, and 100 U/mL penicillin-streptomycin. MitoOxTox and AhR assay medium was comprised of 90% DMEM with GlutaMAX, supplemented with 10% FBS, and 100 U/mL penicillin-streptomycin. Neurotoxicity assay medium consisted of the neurobasal […]
(1 picture or pasted object on this page, not shown here) […]
medium, supplemented with 2% B-27 Supplement and 2 mM GlutaMAX Supplement. SH - SY5Y cells were differentiated with 10 µM all-trans retinoic acid prior to the assay.
S2.2: Cell Seeding and Incubation. For all bioassays, cell suspensions in the respective assay medium were dispensed into each well of 384-well plates using a MultiFlo Dispenser (Biotek, (now Agilent), Winooski, VT, U.S.). After seeding, the plates were incubated at 37° C and 5% CO₂ for […]. The final cell densities and plate types were as follows: Black poly-D-lysine coated 384-well plates (Product No. 354663, Corning Inc., NYC, U.S.) were used for PPARγ:
(§2) 6500 cells/well, ERα: 5000 cells/well. White 384-well plates with a clear bottom (Product No.
781098, Greiner, Kremsmünster, Austria) were utilized for the MitoOxTox assay: 2650

H4IIe (AhR CALUX) = settings: for IC10, H4IIe, AhR: H4IIe (AhR assay cells)
Procedure: as §1
(§3) For ARE, the concentration that triggered an induction ratio of 1.5 (ECIR1.5) was used as the benchmark value, as detailed in Text S2.5. IC10 values also served as a threshold for data analysis in all assays; only concentrations below IC10 were considered when deriving EC10 or ECIR1.5.
(§4) We measured the cytotoxicity of BPA and its alternatives in HEK293H (PPARγ), HEK293T (ERα), H4IIe (AhR CALUX), MCF7 (ARE/MMP), and differentiated SH-SY5Y cells (Table S6). […]
(§5) S2.2: Cell Seeding and Incubation. For all bioassays, cell suspensions in the respective assay medium were dispensed into each well of 384-well plates using a MultiFlo Dispenser (Biotek, (now Agilent), Winooski, VT, U.S.). After seeding, the plates were incubated at 37° C and 5% CO₂ for […]. The final cell densities and plate types were as follows: Black poly-D-lysine […]
as §2
(§6) NYC, U.S.) for AhR: 3250 cells/well. Black Collagen I coated plates were used (Product No.
(§7) S2.3: Chemical Dosing and Assay Analysis Procedures. The dosing procedure and high-throughput assay workflow have been described in detail before. 9 The dosing concentrations […]
(§8) Stock solutions were then either added directly to the respective cell culture medium or evaporated under nitrogen, followed by replenishment with fresh medium. The final solvent content in each well was kept below 1% for methanol, 0% for acetonitrile.
(§9) Dosing plates were prepared as 11 -step serial dilutions using a Hamilton Microlab Star robotic system (Hamilton, Bonaduz, Switzerland), and chemicals were dosed in duplicates by transferring 10 μL twice from the dosing plates to the cell plates . After quantifying cell confluency as described in S2. 4., the exposed cells were incubated at 37° C and 5% CO₂ for an additional 24 h. All chemicals were tested in all assays with at least three independent […]
(§10) S2.4: Cell Viability Measurement s and bioanalytical protocols . The confluency as a measure of cell viability was determined with an IncuCyte S3 Live -Cell Analysis System (Sartorius AG, Essen, Germany). With this method the confluency of cells in a microscopy image are normalized to control wells without cells and compared before and after 24 hours of exposure.
(§11) This method has been described previously 13. […]

HEK293H (PPARγ) = settings: for IC10, linear: linear model; for IC10, HEK293, PPARγ: cytotoxicity, HEK293 (PPARγ assay cells)
Procedure: as §1, §3, §4, §5, §2, §6, §7, §8, §9, §10, §11

HEK293T (ERα) = settings: for IC10, HEK293, ERα: HEK293 (ERα assay cells)
Procedure: as §1, §3, §4, §5, §2, §6, §7, §8, §9, §10, §11

MCF7 (ARE/MMP) = settings: for IC10, MCF7, ARE: MCF7, ARE readout; for IC10, MCF7, MMP: MCF7, MMP readout
Procedure: as §1, §3, §4, §5, §2, §6, §7, §8, §9, §10, §11

[2] = Bioassay AhR, cytotoxicity, dosing range all, linear model fit
[3] = Bioassay AhR, cytotoxicity, dosing range all, log-logistic model fit
[4] = PPARγ bioassay cytotoxicity, dosing range all
[5] = PPARγ bioassay cytotoxicity, dosing range all, log-logistic model
[6] = Bioassay ERα, cytotoxicity, dosing range all
[7] = Bioassay ERα, cytotoxicity, dosing range all, linear model fit
[8] = Bioassay ERα, cytotoxicity, dosing range all, log-logistic model fit
[9] = Bioassay ARE, cytotoxicity, dosing range all
[10] = Bioassay ARE, cytotoxicity, dosing range all, linear model fit
[11] = Bioassay ARE, cytotoxicity, dosing range all, log-logistic model fit
[12] = MMP bioassay cytotoxicity, dosing range all
[13] = MMP bioassay cytotoxicity, dosing range all, linear model
[14] = MMP bioassay cytotoxicity, dosing range all, log-logistic model
[15] = Bioassay AhR, cytotoxicity, dosing range all

Structure (SMILES)	oxidative stress response (ARE activation) [1]	EC10, linear [1]	logEC10 [1]	IC10, linear (H4IIe (AhR CALUX); [2])	logIC10 (H4IIe (AhR CALUX); [3])	IC10, linear transformed (HEK293H (PPARγ); [4])	IC10, linear (HEK293H (PPARγ); [4])	logIC10 (HEK293H (PPARγ); [5])	IC10, HEK293, PPARγ (HEK293H (PPARγ)) [µM]	IC10, linear transformed (HEK293T (ERα); [6])	IC10, linear (HEK293T (ERα); [7])	IC10, HEK293, ERα (HEK293T (ERα); cytotoxicity) [µM]	IC10, linear transformed (MCF7 (ARE/MMP); [9])	IC10, linear (MCF7 (ARE/MMP); [10])	logIC10 (MCF7 (ARE/MMP); [11])	IC10, linear transformed (MCF7 (ARE/MMP); [12])	IC10, linear (MCF7 (ARE/MMP); [13])	logIC10 (MCF7 (ARE/MMP); [14])	IC10, MCF7, ARE (MCF7 (ARE/MMP); cytotoxicity) [µM]	IC10, MCF7, MMP (MCF7 (ARE/MMP); cytotoxicity) [µM]	other results
CC(C)(c1ccc(OCC2CO2)cc1)c1ccc(OCC2CO2)cc1 (stereo not shown) [BADGE, Bisphenol A diglycidyl ether]	lacked any oxidative stress response	no effect	no effect	no cytotoxicity	no cytotoxicity	1.49E-05	no cytotoxicity	-4.62	24	1.08E-05	no cytotoxicity	18.8	3.85E-05	3.62E-05	-4.41	7.87E-05	8.59E-05	-4.10	38.5	78.7	Toxic ratio (TR) TRPPARγ (HEK293H (PPARγ); against baseline cytotoxicity): 0.42; logIC10 (HEK293T (ERα); [8]): -4.73; Toxic ratio (TR) TRERα (HEK293T (ERα); against baseline cytotoxicity): 0.54; Toxic ratio (TR) TRARE (MCF7 (ARE/MMP); against baseline cytotoxicity, ARE readout): 0.61; Toxic ratio (TR) TRMMP (MCF7 (ARE/MMP); against baseline cytotoxicity, MMP readout): 0.30
CC(C)CC(C)(c1ccc(O)cc1)c1ccc(O)cc1 [BP-MIBK, 4,4'-(1,3-Dimethylbutylidene)diphenol]		no effect	no effect																		IC10, linear (H4IIe (AhR CALUX)): no cytotoxicity; logIC10 (H4IIe (AhR CALUX); rat, 24 h): -4.05; logIC10 (HEK293H (PPARγ); human, 24 h): -5.09; IC10, linear (HEK293T (ERα)): no cytotoxicity; logIC10 (HEK293T (ERα)): no cytotoxicity; logIC10 (HEK293T (ERα); human, 24 h): -5.04; IC10, linear (MCF7 (ARE/MMP)): no cytotoxicity
CC(C)(c1ccc(O)cc1)c1ccc(O)cc1 [BPA, 4,4'-(Propane-2,2-diyl)diphenol, reference compound]	did not induce ARE	no effect	masked by cytotoxicity																		EC10 ([1]; Arec32, read-out: EC10, linear transformed): 1510 µM; IC10, linear (H4IIe (AhR CALUX)): no cytotoxicity; logIC10 (H4IIe (AhR CALUX); rat, 24 h): -3.77; Toxic ratio (TR) TRPPARγ (HEK293H (PPARγ); human, 24 h): 0.38; logIC10 (HEK293H (PPARγ); human, 24 h): -4.45; IC10, linear (HEK293T (ERα)): no cytotoxicity; logIC10 (HEK293T (ERα)): no cytotoxicity; Toxic ratio (TR) TRERα (HEK293T (ERα); human, 24 h): 0.28; logIC10 (HEK293T (ERα); human, 24 h): -4.33; Toxic ratio (TR) TRARE (MCF7 (ARE/MMP); human, 24 h): 0.37; Toxic ratio (TR) TRMMP (MCF7 (ARE/MMP); human, 24 h): 0.31
Oc1ccc(C(c2ccc(O)cc2)(C(F)(F)F)C(F)(F)F)cc1 [BPAF, 4,4'-(1,1,1,3,3,3-Hexafluoropropane-2,2-diyl)diphenol]		no effect	no effect	3.11E-05	-4.40	4.34E-06	1.10E-05	-5.04	9.12			9.47	1.84E-05	1.82E-05	-4.73	2.72E-05	2.87E-05	-4.57	18.4	27.2	IC10, linear transformed (H4IIe (AhR CALUX); [15]): 3.99E-05; IC10, H4IIe, AhR (H4IIe (AhR CALUX); cytotoxicity): 31.1 µM; IC10, linear transformed (HEK293T (ERα); Bioassay ERα, cytotoxicity, dosing range high): 5.56E-06; IC10, linear (HEK293T (ERα); Bioassay ERα, cytotoxicity, dosing range high, linear model fit): no cytotoxicity; logIC10 (HEK293T (ERα); Bioassay ERα, cytotoxicity, dosing range high, log-logistic model fit): -5.02; IC10, linear (HEK293T (ERα); Bioassay ERα, cytotoxicity, dosing range low, linear model fit): no cytotoxicity; logIC10 (HEK293T (ERα); Bioassay ERα, cytotoxicity, dosing range low, log-logistic model fit): no cytotoxicity
CC(c1ccccc1)(c1ccc(O)cc1)c1ccc(O)cc1 [BPAP, 4,4'-(1-Phenylethylidene)bisphenol]		no effect	no effect	no cytotoxicity	-4.02	3.60E-06	no cytotoxicity	-4.99	10.2	1.11E-05	no cytotoxicity	11.8	3.14E-05	2.44E-05	-4.50	3.48E-05	2.54E-05	-4.46	31.4	34.8	IC10, linear transformed (H4IIe (AhR CALUX); [15]): 9.59E-05; IC10, H4IIe, AhR (H4IIe (AhR CALUX); cytotoxicity): 95.9 µM; logIC10 (HEK293T (ERα); [8]): -4.93
